Measurements published in paper PMC9669016, “First-in-human phase Ia study of the PI3Kα inhibitor CYH33 in patients with solid tumors” (Nature Communications, 2022).
Where two headings read alike, the source gives them in different places.

Key:
[1] = test system: fasting blood glucose (FBG); test: Pharmacodynamics: fasting blood glucose (FBG) change from baseline; assay type: in vivo, human; details: Cycle 1 Day 15 (C1D15), starting at 10 mg CYH33 and peaking at 60 mg
Description: Since glucose metabolism is tightly regulated by PI3Kα[24], fasting blood glucose (FBG) levels were used as a PD marker.
This is a phase I clinical study (ClinicalTrials.gov identifier: NCT03544905), including a phase Ia study of oral CYH33 monotherapy in patients with advanced solid tumors, and a phase Ib study of oral CYH33 monotherapy focused on several specific tumors. Here we report the results of the phase Ia study conducted at Sun Yat-sen University Cancer Center. The phase Ia study included dose-escalation stage and dose-expansion stage. […]
Blood samples for PK evaluation were collected at: (1) during the single dose phase: on day 1 pre-dose and 0.5, 1, 2, 4, 8, 12, 24, 36, 48, and 72 h post-dose; (2) during the continuous dose phase: C1D1/Cycle 1 Day 28 pre-dose, and 0.5, 1, 2, 3, 4, 6, 8, 12, and 24 h post-dose; and C1D8/Day 15 pre-dose. Plasma concentrations of CYH33 and I27 were analyzed using a liquid chromatography-tandem mass spectrometry (LC/MS/MS) assay (Shimadzu Corporation, LC-30AD) with a lower limit of quantification (LLOQ) of 2.585 ng/mL and 1.0 ng/mL for CYH33 and I27, respectively. […]

[2] = set-up: method as in Study Protocol CYH33-101 Table 2; details: in H2O; ref Study Protocol CYH33-101 Table 2; cited from earlier work
[3] = test system: more than 300 other kinases, including PIKK family; set-up: method as in Investigator's Brochure (IB) 12; details: ref Investigator's Brochure (IB) 12; cited from earlier work
[4] = test system: KYSE510 human esophageal cancer xenograft; set-up: method as in Investigator's Brochure (IB) 12; details: 12.5 mg/kg oral for 21 days; ref Investigator's Brochure (IB) 12; cited from earlier work
[5] = test system: EC104 esophageal cancer PDX; set-up: method as in Investigator's Brochure (IB) 12; details: 12.5 mg/kg oral for 21 days; ref Investigator's Brochure (IB) 12; cited from earlier work
[6] = test system: EC063 esophageal cancer PDX; set-up: method as in Investigator's Brochure (IB) 12; details: 12.5 mg/kg oral for 21 days; ref Investigator's Brochure (IB) 12; cited from earlier work
[7] = test system: EC074 esophageal cancer PDX; set-up: method as in Investigator's Brochure (IB) 12; details: 25 mg/kg oral for 21 days; ref Investigator's Brochure (IB) 12; cited from earlier work
[8] = test system: KYSE410, KYSE510, EC104, EC063, EC074 xenograft models; set-up: method as in Investigator's Brochure (IB) 12; details: ref Investigator's Brochure (IB) 12, cited from earlier work
[9] = set-up: method as in Investigator's Brochure (IB) 12; details: ref Investigator's Brochure (IB) 12, cited from earlier work; for absolute bioavailability: 1 mg/kg
[10] = set-up: method as in Investigator's Brochure (IB) 12; details: dogs, ref Investigator's Brochure (IB) 12, cited from earlier work
[11] = set-up: method as in Investigator's Brochure (IB) 12; details: rats, without concentration dependency; ref Investigator's Brochure (IB) 12; cited from earlier work
CYP2C8 = test system: CYP2C8; set-up: method as in Investigator's Brochure (IB) 12; details: up to 100 µM; ref Investigator's Brochure (IB) 12; cited from earlier work
CYP2B6 = test system: CYP2B6; set-up: method as in Investigator's Brochure (IB) 12; details: up to 100 µM; ref Investigator's Brochure (IB) 12; cited from earlier work
CYP2D6 = test system: CYP2D6; set-up: method as in Investigator's Brochure (IB) 12; details: up to 100 µM; ref Investigator's Brochure (IB) 12; cited from earlier work
CYP3A4 = test system: CYP3A4; set-up: method as in Investigator's Brochure (IB) 12; details: up to 100 µM; ref Investigator's Brochure (IB) 12; cited from earlier work
Caco-2 cells = test system: Caco-2 cells; set-up: method as in Investigator's Brochure (IB) 12; details: 2.00 - 10.0 µM; efflux transporters may be involved; ref Investigator's Brochure (IB) 12; cited from earlier work
Beagle dogs = test system: Beagle dogs; set-up: method as in Investigator's Brochure (IB) 12; details: species wording unclear (Beagle dogs / rats); ref Investigator's Brochure (IB) 12; cited from earlier work
SD rats [12] = test system: SD rats; set-up: method as in Investigator's Brochure (IB) 12; details: ref Investigator's Brochure (IB) 12; cited from earlier work
SD rats [13] = test system: SD rats; set-up: method as in Investigator's Brochure (IB) 12; details: long-term, ref Investigator's Brochure (IB) 12, cited from earlier work
pregnant rats = test system: pregnant rats; set-up: method as in Investigator's Brochure (IB) 12; details: ref Investigator's Brochure (IB) 12; cited from earlier work

## COC(=O)Nc1cc(C(F)(F)F)c(-c2nc(N3CCOCC3)c3cc(CN4CCN(S(C)(=O)=O)CC4)cn3n2)cn1 [CYH33, methyl (5-(6-((4-(methylsulfonyl)piperazin-1-yl)methyl)−4-morpholinopyrrolo[2,1-f][1,2,4]triazin-2-yl)−4-(trifluoromethyl)pyridin-2-yl)carbamate]
[1]
  FBG levels: dose-dependent increase in FBG levels
[2]
  pKa: 4.86 ± 0.06
[3]
  effects on more than 300 other kinases, including other PIKK family members: slight
[4]
  T/C ratio: approximately 30%
[5]
  T/C ratio: approximately 30%
[6]
  T/C ratio: approximately 30%
[7]
  T/C ratio: 36.78%
[8]; 50 mg/kg dose group, subcutaneous xenograft tumor model
  T/C%: < 20%
[8]; oral for 21 days
  effective dose in nude mice: 12.5 mg/kg
[9]; female rats
  absolute bioavailability: 53.7%
  plasma clearance CL: 34.0 mL/min/kg
  t1/2: 6.7 h
[9]; intragastric administration
  exposure AUC0-t in female rats relative to male rats: more than 12 times
[9]; male rats
  absolute bioavailability: 19.0%
  plasma clearance CL: 4.83 mL/min/kg
  t1/2: 1.3 to 4.5 h
[9]; rats
  Vss, steady-state volume of distribution: 1.96 L/kg
  accumulation after continuous administration for 7 days: not significant
[10]; 0.05 mg/kg
  absolute bioavailability: 70.9%
[10]
  Vss, steady-state volume of distribution: 1.86 L/kg
  accumulation after continuous administration for 7 days: not significant
  elimination half-life: 5.1 h
  plasma clearance CL: 6.75 mL/min/kg
[11]
  plasma protein binding (PPB): 97.5%
CYP2C8
  inhibition of CYP2C8: did not inhibit
CYP2B6
  inhibition of CYP2B6: did not inhibit
CYP2D6
  inhibition of CYP2D6: did not inhibit
CYP3A4
  inhibition of CYP3A4: did not inhibit
Caco-2 cells
  permeability: moderately permeable
Beagle dogs
  arrhythmia, ECG, blood pressure and body temperature parameters: no drug-related arrhythmia or changes
SD rats [12]
  MTD, acute toxicity: ≥ 600 mg/kg
SD rats [13]; female SD rats
  highest non-severely toxic dose (HNSTD): 3 mg/kg
SD rats [13]; male SD rats
  highest non-severely toxic dose (HNSTD): 8 mg/kg
Pregnant rats
  no-observed-adverse-effect level (NOAEL) for embryo-fetal development: 0.10 mg/kg
